Columns and labels:
[1] = test system: mHTT; test: Mutant and total HTT multiplex HTRF assay in Q48 HTT human embryonic stem cell line: mHTT; format: cell-based; settings: Q48 HTT hESC, 48 hours
Experimental: (§1) The multiplex assay is performed in human embryonic stem cells (hESCs) which have been derived by Genea Biocells from human blastocysts of HD donors. Cells are plated at a density of 10,000 cells/well into 384-well collagen coated plates and left to adhere for 24 hours, compounds 1 to 82 are then added to cells and incubated for 48 hours (37° C., 5% CO2), cells are then lysed and the contents split into a black 384-well plate.
(§2) The black plates have a combination of HTRF labeled monoclonal antibodies added which recognize discrete areas of the HTT protein, the 2B7-Tb “donor” antibody (0.2 ng/well) recognizes a sequence at the N-terminus of the protein, an MW1-Alexa488 “acceptor 1” antibody (30 ng/well) recognizes an area in the polyQ region, whereas a MAB2166-d2 “acceptor 2” antibody (6 ng/well) recognizes a sequence beyond the polyQ region. The 2B7 antibody was obtained from Coriell (CH02024), the MW1 antibody from Millipore (MABN2427), and the MAB2166 antibody from Millipore (1HU-4C8).
(§3) These detection reagents are incubated with the cell lysate at room temperature for 4-6 hours before having their fluorescence quantified at 615 nm (donor) and 535 nm and 665 nm (acceptor 1 and 2 respectively). The donor/acceptor ratio between these signals indicates the relative quantities of mHTT and tHTT proteins. As shown in the Table 1, compounds 1 to 82 as described therein and in Table 2, had the following pIC50 values.

[2] = test system: tHTT; test: Mutant and total HTT multiplex HTRF assay in Q48 HTT human embryonic stem cell line: tHTT; format: cell-based; settings: Q48 HTT hESC, 48 hours
Experimental: as §1, §2, §3

SMILES | Rating (based on mHTT potency) [1] | mHTT pIC50 [1] | tHTT pIC50 [2]
CN(c1ccc(-c2c(O)cc(-c3ccn(C)c(=O)c3)cc2F)nn1)C1CC(C)(C)NC(C)(C)C1 [Compound 23, 4-(3-fluoro-5-hydroxy-4-(6-(methyl(2,2,6,6-tetramethylpiperidin-4-yl)amino)pyridazin-3-yl)phenyl)-1-methylpyridin-2(1H)-one] | **** (a pIC50 value between 7.0 and 7.5 is indicated by four stars (****)) | 7.1895 | 7.17
CCn1ccc2cc(O)c(-c3ccc(OC4CC(C)(C)NC(C)(C)C4)nn3)cc2c1=O [Compound 24, 2-ethyl-6-hydroxy-7-(6-((2,2,6,6-tetramethylpiperidin-4-yl)oxy)pyridazin-3-yl)isoquinolin-1(2H)-one] | **** (a pIC50 value between 7.0 and 7.5 is indicated by four stars (****)) | 7.186 | 7.168
CN(c1ccc(-c2cc3c(O)nccc3cc2O)nn1)C1CC(C)(C)NC(C)(C)C1 [Compound 25, 7-(6-(methyl(2,2,6,6-tetramethylpiperidin-4-yl)amino)pyridazin-3-yl)isoquinoline-1,6-diol] | **** (a pIC50 value between 7.0 and 7.5 is indicated by four stars (****)) | 7.161 | 7.128
CN(c1ccc(-c2ccc(-c3ccn(C4CC4)c(=O)c3)cc2O)nn1)C1CC(C)(C)NC(C)(C)C1 [Compound 26, 1-cyclopropyl-4-(3-hydroxy-4-(6-(methyl(2,2,6,6-tetramethylpiperidin-4-yl)amino)pyridazin-3-yl)phenyl)pyridin-2(1H)-one] | **** (a pIC50 value between 7.0 and 7.5 is indicated by four stars (****)) | 7.1215 | 7.0435
Oc1cc(-c2cn[nH]c2)cc(F)c1-c1nnc(N2C[C@H]3CNC[C@H]3C2)s1 [Compound 27, 3-fluoro-2-(5-((3aR,6aS)-hexahydropyrrolo[3,4-c]pyrrol-2(1H)-yl)-1,3,4-thiadiazol-2-yl)-5-(1H-pyrazol-4-yl)phenol] | **** (a pIC50 value between 7.0 and 7.5 is indicated by four stars (****)) | 7.1125 | 7.085
CN(c1ccc(-c2cc3cnn(C)c3cc2O)nn1)C1CC(C)(C)NC(C)(C)C1 [Compound 28, 1-methyl-5-(6-(methyl(2,2,6,6-tetramethylpiperidin-4-yl)amino)pyridazin-3-yl)-1H-indazol-6-ol] | **** (a pIC50 value between 7.0 and 7.5 is indicated by four stars (****)) | 7.111 | 7.1045
Cn1ccc(-c2ccc(-c3ccc(OC4CC(C)(C)NC(C)(C)C4)nn3)c(O)c2)cc1=O [Compound 29, 4-(3-hydroxy-4-(6-((2,2,6,6-tetramethylpiperidin-4-yl)oxy)pyridazin-3-yl)phenyl)-1-methylpyridin-2(1H)-one] | **** (a pIC50 value between 7.0 and 7.5 is indicated by four stars (****)) | 7.0855 | 7.074
Cc1cc2cc(O)c(-c3ccc(N(C)C4CC(C)(C)NC(C)(C)C4)nn3)cc2cn1 [Compound 30, 3-methyl-7-(6-(methyl(2,2,6,6-tetramethylpiperidin-4-yl)amino)pyridazin-3-yl)isoquinolin-6-ol] | **** (a pIC50 value between 7.0 and 7.5 is indicated by four stars (****)) | 7.08 | 7.0835
CN(c1ccc(-c2cc3ncccc3cc2O)nn1)C1CC(C)(C)NC(C)(C)C1 [Compound 31, 7-(6-(methyl(2,2,6,6-tetramethylpiperidin-4-yl)amino)pyridazin-3-yl)quinolin-6-ol] | **** (a pIC50 value between 7.0 and 7.5 is indicated by four stars (****)) | 7.0275 | 7.0015
CN1C[C@@H]2CN(c3ccc(-c4ccc(-c5cn[nH]c5)cc4O)nn3)C[C@@H]2C1 [Compound 32, 2-(6-((3aR,6aS)-5-methylhexahydropyrrolo[3,4-c]pyrrol-2(1H)-yl)pyridazin-3-yl)-5-(1H-pyrazol-4-yl)phenol] | **** (a pIC50 value between 7.0 and 7.5 is indicated by four stars (****)) | 7.0085 | 7.0625
CN(c1ccc(-c2cc3c(cc2O)-c2nc(N)sc2C3)nn1)C1CC(C)(C)NC(C)(C)C1 [Compound 33, 2-amino-6-(6-(methyl(2,2,6,6-tetramethylpiperidin-4-yl)amino)pyridazin-3-yl)-8H-indeno[1,2-d]thiazol-5-ol] | **** (a pIC50 value between 7.0 and 7.5 is indicated by four stars (****)) | 7.0085 | 7.001
CC1(C)CC(Oc2ccc(-c3ccc(-n4cccn4)cc3O)nn2)CC(C)(C)N1 [Compound 34, 5-(1H-pyrazol-1-yl)-2-(6-(2,2,6,6-tetramethylpiperidin-4-yloxy)pyridazin-3-yl)phenol] | **** (a pIC50 value between 7.0 and 7.5 is indicated by four stars (****)) | 7.004 | 6.9475
Cc1cc(-c2ccc(-c3ccc(N(C)C4CC(C)(C)NC(C)(C)C4)nn3)c(O)c2)ccn1 [Compound 35, 2-(6-(methyl(2,2,6,6-tetramethylpiperidin-4-yl)amino)pyridazin-3-yl)-5-(2-methylpyridin-4-yl)phenol] | **** (a pIC50 value between 7.0 and 7.5 is indicated by four stars (****)) | 7.003 | 6.877
Oc1cc(-c2cn[nH]c2)cc(F)c1-c1nnc(N2CC3(CCNCC3)C2)s1 [Compound 36, 2-(5-(2,7-diazaspiro[3.5]nonan-2-yl)-1,3,4-thiadiazol-2-yl)-3-fluoro-5-(1H-pyrazol-4-yl)phenol] | *** (a pIC50 value between 6.5 and 7.0 is indicated by three stars (***)) | 6.996 | 6.827
CC1(C)CC(Oc2ccc(-c3cc4ccc(O)cc4cc3O)nn2)CC(C)(C)N1 [Compound 37, 3-(6-(2,2,6,6-tetramethylpiperidin-4-yloxy)pyridazin-3-yl)naphthalene-2,7-diol] | *** (a pIC50 value between 6.5 and 7.0 is indicated by three stars (***)) | 6.98 | 7.121
Cc1cnc2cc(-c3ccc(N(C)C4CC(C)(C)NC(C)(C)C4)nn3)c(O)cc2n1 [Compound 38, 3-methyl-7-(6-(methyl(2,2,6,6-tetramethylpiperidin-4-yl)amino)pyridazin-3-yl)quinoxalin-6-ol] | *** (a pIC50 value between 6.5 and 7.0 is indicated by three stars (***)) | 6.9735 | 7.0015
CN(c1ccc(-c2cc3nccnc3cc2O)nn1)C1CC(C)(C)NC(C)(C)C1 [Compound 39, 7-(6-(methyl(2,2,6,6-tetramethylpiperidin-4-yl)amino)pyridazin-3-yl)quinoxalin-6-ol] | *** (a pIC50 value between 6.5 and 7.0 is indicated by three stars (***)) | 6.946 | 6.9105
CN(c1ccc(-c2cc3cn(C)nc3cc2O)nn1)C1CC(C)(C)NC(C)(C)C1 [Compound 40, 2-methyl-5-(6-(methyl(2,2,6,6-tetramethylpiperidin-4-yl)amino)pyridazin-3-yl)-2H-indazol-6-ol] | *** (a pIC50 value between 6.5 and 7.0 is indicated by three stars (***)) | 6.927 | 6.994
CN(c1ccc(-c2cc3ccccc3cc2O)nn1)C1CC(C)(C)NC(C)(C)C1 [Compound 41, 3-(6-(methyl(2,2,6,6-tetramethylpiperidin-4-yl)amino)pyridazin-3-yl)naphthalen-2-ol] | *** (a pIC50 value between 6.5 and 7.0 is indicated by three stars (***)) | 6.923 | 6.8125
Cc1nc2cc(O)c(-c3ccc(N(C)C4CC(C)(C)NC(C)(C)C4)nn3)cc2nc1C [Compound 42, 2,3-dimethyl-7-(6-(methyl(2,2,6,6-tetramethylpiperidin-4-yl)amino)pyridazin-3-yl)quinoxalin-6-ol] | *** (a pIC50 value between 6.5 and 7.0 is indicated by three stars (***)) | 6.92 | 6.885
CNc1ccn(-c2ccc(-c3nnc(N(C)C4CC(C)(C)NC(C)(C)C4)s3)c(O)c2)n1 [Compound 43, 2-(5-(methyl(2,2,6,6-tetramethylpiperidin-4-yl)amino)-1,3,4-thiadiazol-2-yl)-5-(3-(methylamino)-1H-pyrazol-1-yl)phenol] | *** (a pIC50 value between 6.5 and 7.0 is indicated by three stars (***)) | 6.917 | 6.852
CCN1CCC(c2cn3c(=O)cc(-c4ccc5nn(C)cc5c4)nc3c(C)n2)CC1 [Compound 44, 7-(1-ethylpiperidin-4-yl)-9-methyl-2-(2-methyl-2H-indazol-5-yl)-4H-pyrazino[1,2-a]pyrimidin-4-one] | *** (a pIC50 value between 6.5 and 7.0 is indicated by three stars (***)) | 6.869 | 6.7695
